Reference: patent publication US20240197869A1, “HYPERACTIVATORS OF MAMMALIAN DENDRITIC CELLS” (Corner Therapeutics, Inc., priority 2021, published 2024)

Assays:
[1] = system: murine, FLT3L-differentiated DC; assay: Cytokine secretion by murine FLT3L-differentiated BMDC (ELISA); assay type: cell-based, mouse
Description: (§1) Murine FLT3L-differentiated, bone marrow-derived DC (BMDC) generation. Leg femur and tibia were removed from mice, cut with scissors and flushed into sterile tubes. Bone marrow suspension was treated with ACK for 1 minute, then passed through a 40 um cell strainer. Cells were counted and resuspended in media consisting of complete IMDM containing 10% FBS, penicillin and streptomycin, and supplements of L-glutamine and sodium pyruvate (I10). Cells were then plated at 5E6 bone marrow cells per well in a P12 plate. Recombinant mouse FLT3L (Miltenyi) was added to cultures at 200 ng/mL. Differentiated cells were used for subsequent assays on day 9. The efficiency of differentiation was monitored by flow cytometry using BD Symphony A3, and CD11c+MHC-II+ cells were routinely above 80% of living cells. For each experiment, five mice were used to collect BM and to generate DCs.
(§2) Murine FLT3L-differentiated BMDC (FLT3L-BMDC) hyperactivation. BMDCs were washed with PBS and re-plated in FLT3L-containing 110 at a concentration of 1.5×10^5 cells/well. Stimuli were added to cultures at indicated concentrations for a final volume of 200 uL/well. Twenty-four hours post-stimulation, cell culture supernatant was collected after centrifugation and stored at −20° C. to measure cytokine secretion. IL-1b, IL-6, IL-12p40, and TNF-alpha ELISA were performed using eBioscience Ready-SET-Go! (now ThermoFisher) ELISA kits according to the manufacturer's protocols. Cell viability was measured using Promega's Cell Titer-Glo reagent kits.

[2] = system: murine, FLT3L-differentiated cDC1 and cDC2 cells; assay: Flow cytometry of surface markers on murine cDC1 and cDC2; assay type: cell-based, mouse
Description: as §1, §2
Flow cytometry. After FcR blockade, treated FLT3L-BMDCs were washed and stained in PBS with Live Dead Fixable dye (ThermoFisher) for 20 minutes at 4° C. Cells were then washed again and stained for 20 minutes at 4° C. in MACS buffer (PBS with 1% FCS and 2 mM EDTA) containing the following fluorescently conjugated antibodies purchased from BioLegend: anti-CD11c, anti-I-A/I-E, anti-H-2Kb, anti-SIRPa, anti-CD24, anti-CD40, anti-CD45R, anti-CXCL16 and anti-CCR7. Data were acquired on a BD FACS Symphony (Becton-Dickenson). Data were analyzed using FlowJo software (Tree Star). […]

[3] = system: human monocyte-derived dendritic cells (moDCs); assay: PAMP screen: IL-1β secretion by human moDCs with PRR agonist and 22:0 Lyso PC; assay type: cell-based; details: No PAMP, 20 μM 22:0 Lyso PC alone, human moDCs
Description: Pathogen-Associated Molecular Pattern (PAMP) Screen. Innate immune signaling pathway agonists were purchased from Invivogen. Lyophilized stocks were reconstituted and stored according to manufacturer's instructions and at recommended concentrations. […] Innate immune signaling agonists were diluted in R10 media to the manufacturer's recommended working concentration and then added onto cells. 22:0 Lyso PC was then reconstituted from a lyophilized stock in R10 and then further diluted. The lipid was added onto cells at a final concentration of 20 μM. Cells were incubated for 2 days, then cultures were collected for endpoint analyses.
Quantification of IL-1beta Secretion. IL-1beta secretion was assessed using the ELISA MAX Deluxe Set Human IL-1beta kit (Biolegend). ELISAs were performed according to manufacturer's instructions with the following modifications: i) total sample volume for incubation was reduced from […] the top standard was prepared at […], with two-fold dilutions to […]; and iii) sample incubation was completed overnight at 4 C on an orbital shaker. […] To determine IL-1beta concentration in supernatants, sample IL-1beta concentrations were interpolated using a standard curve via 4PL analysis on GraphPad Prism 9 (GraphPad Software). The interpolated results of samples were then adjusted for any dilutions made to the supernatant.

human moDC = assay: Viability of human moDC with surfactant formulations of 22:0 Lyso PC; assay type: cell-based; details: solvent evaporation method with KP407, filtered, target 82.5 uM + R848
Description: Formulation of 22:0 Lyso PC with poloxamers. […] 22:0 Lyso PC was resuspended in the surfactant solution and agitated at 4° C. for an hour. Solutions were then brought to room temperature to form micelles. Using 10× concentrated PBS, salts were added to the solution to stabilize molecular interactions and provide physiologically relevant osmolarity. Lipid solutions were either left unfiltered or filtered through a pore size of 0.45 um to remove insoluble lipid flakes. Lipids were further diluted and added onto human moDC cell cultures along with 1 ug/mL R848. Targeted lipid concentrations were based on the scenario where the lipid is fully bio-available prior to filtration. However, filtration of insoluble lipid reduces the bio-available supply of lipid. Thus, IL-1beta as a measure of hyperactivity can be used as an indicator of 22:0 Lyso PC incorporation into micelles and thus into solution. One day after hyperactivation, cell culture supernatants are collected to measure cytokine secretion, and cells are used to measure viability via Cell Titer-Glo.
Salts are added to the solution to stabilize the molecular interactions and bring the solution to a physiologically relevant osmolarity. The solutions are then either left unfiltered or filtered through a pore size of 0.45 um to remove insoluble lipid flakes or particle aggregates. […]

[4] = R848 + 41 uM lipid in PBS or KP407, 24 h

CCCCCCCCCCCCCCCCCCCCCC(=O)OC[C@@H](O)COP(=O)([O-])OCC[N+](C)(C)C [22:0 LYSO PC, 1-behenoyl-2-hydroxy-sn-glycero-3-phosphocholine]
IL-1beta secretion (in words) ([1]; 22:0 Lyso PC without R848): failed to induce IL-1beta secretion | IL-6 secretion (in words) [1, 4]: high TNF-alpha and IL-6 secretion | TNF-alpha secretion (in words) [1, 4]: high TNF-alpha and IL-6 secretion | TNF-alpha secretion (in words) ([1]; R848 + lipid in KP407): small boost in TNF-alpha secretion | lipid concentration superior in supporting IL-1beta secretion while retaining cell viability ([1]; formulated in KP407 + R848): 41 µM | IL-1beta secretion (in words) ([1]; lipid formulated in 5% KP407 + R848 1 ug/mL, 24 h): induced IL-1beta secretion in a dose dependent manner | IL-1beta secretion (in words) ([1]; lipid resuspended in PBS, different concentrations, + R848 1 ug/mL, 24 h): unable to induce IL-1beta secretion | CD40 expression (in words) ([2]; R848 + 41 uM lipid in 5% KP407, cDC1 and cDC2): strongly enhanced | MHC class I expression (in words) ([2]; R848 + lipid vs R848 alone): enhanced MHC class I expression on both cDC1 and cDC2 subsets | CCR7 expression (in words) ([2]; cDC1, R848 + lipid in KP407 formulation): increased their CCR7 expression significantly compared to R848 alone | IL-1β secretion ([3]; Table 1-7, 10 donors): 1.1 pg/mL | IL-1β secretion ([3]; Table 1-8): 1.0 pg/mL | reduction of cell viability (human moDC): approximately 25%
